Measurements taken from patent publication US20240368209A1, “GEMCITABINE ANTICANCER DERIVATIVE AND ANTICANCER PHARMACEUTICAL USE” (ASCENTAWITS PHARMACEUTICALS, LTD., priority 2021, published 2024).

Columns and labels:
[1] = Plasma stability in monkey plasma; format: in vitro ADME
Method: The final concentration of organic solvents was 0.5%. The test was conducted in duplicate. • C.
Samples were analyzed with LC-MS/MS. All calculations were conducted using Microsoft Excel.

[2] = Plasma stability in rat plasma; settings: rat, plasma
Method: 1 mM working solution of the test compound was prepared in DMSO. 1 mM working solution of propantheline was prepared in acetonitrile. 1 mM working solution of lovastatin (mevinolin) was prepared in DMSO. Propantheline was used as a positive control for human, monkey, dog, and mouse plasma stability tests. Lovastatin was a positive control for rat plasma stability test.
• A. 398 μL of plasma per well was added to the culture plate, and the plate was preheated at 37° C. for 15 minutes. • B. After preincubation, 2 μL of working solution (test solution or control solution) was added to the 398 μL plasma mentioned above, resulting in a final concentration of 5 μM. The final concentration of organic solvents was 0.5%. The test was conducted in duplicate. • C. The reaction sample was incubated at 37° C. • D. 50 μL was extracted from the reaction sample at 0, 15, 30, 60, and 120 minutes, respectively. […] 100 μL of supernatant was taken and transferred to a new plate. The supernatant was diluted with ultrapure water according to the LC-MS signal response and peak shape.
Samples were analyzed with LC-MS/MS. All calculations were conducted using Microsoft Excel. The peak area ratio was determined from the extracted ion chromatogram. • (1) The percentage of the remaining compound at each time point was calculated with the following formula: […]
wherein the slope value k was determined by linear regression of the natural logarithm of the remaining percentage of the parent drug vs. incubation time curve.

[3] = tested on: HuPrime pancreatic cancer xenograft model PA1222; test: In vivo pharmacodynamic experiment in HuPrime pancreatic cancer PA1222 PDX model; settings: for Average weight (g) of mice / Tumor volume (mm^3) (x ± S): Group 3, 240 mg/kg p.o.
[4] = Group 3, 240 mg/kg p.o. QD×21, Day 32
[5] = Group 4, 160 mg/kg i.p. QD×5, 2 days off, 2 weeks off, QD×5, Day 32

SMILES: CC(C)NP(=O)(OCc1ccc([N+](=O)[O-])c(Oc2ccc(-c3ccc(F)cc3)c(F)c2)c1)OCC1OC(C2N=CC(N)=NC2=O)C(F)(F)C1O (stereo not shown) [Compound H11]
- t1/2 (min) [1]: ∞
- Remaining percentage (%) ([1]; 0 min, 5 μM, 37° C.): 100.00%
- plasma stability (in words) ([1]; 37° C., at least 2 hours): stable and has no significant metabolism
- Remaining percentage (%) ([1]; 15 min): 100.61%
- Remaining percentage (%) ([1]; 30 min): 92.99%
- Remaining percentage (%) ([1]; 60 min): 103.66%
- Remaining percentage (%) ([1]; 120 min): 98.48%
- t1/2 (min) [2]: ∞
- Remaining percentage (%) ([2]; 0 h, 5 μM): 100.00%
- Remaining percentage (%) ([2]; 0.25 h, 5 µM): 108.59%
- Remaining percentage (%) ([2]; 0.5 h, 5 µM): 105.39%
- Remaining percentage (%) ([2]; 1 h, 5 µM): 100.74%
- Remaining percentage (%) ([2]; 2 h, 5 µM): 109.53%
- weight loss and tolerability during treatment ([3]; Group 3, 240 mg/kg p.o. QD×21): did not show any significant weight loss, and tolerated well
- Relative tumor volume (x ± S) [3, 4]: 0.47 ± 0.27
- T/C (%) [3, 4]: 7.65%
- TGI (%) [3, 4]: 92.35%
- complete tumor inhibition rate [3, 4]: 20%
- Tumor volume (x ± S) ([3]; Group 3, 240 mg/kg p.o. QD×21, Day 32, mean ± standard error): 44.61 ± 22.14
- Average weight (g) of mice ([3]; Day 0): 21.8 g
- Average weight (g) of mice ([3]; Day 1): 21.5 g
- Average weight (g) of mice ([3]; Day 2): 21.5 g
- Average weight (g) of mice ([3]; Day 3): 21.6 g
- Average weight (g) of mice ([3]; Day 4): 21.9 g
- Average weight (g) of mice ([3]; Day 5): 22.3 g
- Average weight (g) of mice ([3]; Day 6): 21.7 g
- Average weight (g) of mice ([3]; Day 7): 21.6 g
- Average weight (g) of mice ([3]; Day 8): 21.7 g
- Average weight (g) of mice ([3]; Day 9): 22.5 g
- Average weight (g) of mice ([3]; Day 10): 21.6 g
- Average weight (g) of mice ([3]; Day 11): 21.9 g
- Average weight (g) of mice ([3]; Day 12): 22.0 g
- Average weight (g) of mice ([3]; Day 13): 21.9 g
- Average weight (g) of mice ([3]; Day 14): 21.6 g
- Average weight (g) of mice ([3]; Day 15): 21.6 g
- Average weight (g) of mice ([3]; Day 16): 22.1 g
- Average weight (g) of mice ([3]; Day 17): 21.8 g
- Average weight (g) of mice ([3]; Day 18): 21.9 g
- Average weight (g) of mice ([3]; Day 19): 21.8 g
- Average weight (g) of mice ([3]; Day 20): 21.9 g
- Average weight (g) of mice ([3]; Day 21): 21.8 g
- Average weight (g) of mice ([3]; Day 25): 22.6 g
- Average weight (g) of mice ([3]; Day 28): 22.4 g
- Average weight (g) of mice ([3]; Day 32): 22.9 g
- Tumor volume (mm^3) (x ± S) ([3]; day 0): 102.83 mm^3
- Tumor volume (mm^3) (x ± S) ([3]; day 4): 123.16 mm^3
- Tumor volume (mm^3) (x ± S) ([3]; day 7): 90.07 mm^3
- Tumor volume (mm^3) (x ± S) ([3]; day 11): 54.28 mm^3
- Tumor volume (mm^3) (x ± S) ([3]; day 14): 41.73 mm^3
- Tumor volume (mm^3) (x ± S) ([3]; day 18): 34.60 mm^3
- Tumor volume (mm^3) (x ± S) ([3]; day 21): 29.52 mm^3
- Tumor volume (mm^3) (x ± S) ([3]; day 25): 30.71 mm^3
- Tumor volume (mm^3) (x ± S) ([3]; day 28): 30.59 mm^3
- Tumor volume (mm^3) (x ± S) ([3]; day 32): 44.61 mm^3
- weight loss and tolerability during treatment ([3]; Group 4, 160 mg/kg i.p. QD×5, 2 days off, 2 weeks off, QD×5): did not show any significant weight loss, and tolerated well
- Relative tumor volume (x ± S) [3, 5]: 2.01 ± 0.41
- T/C (%) [3, 5]: 32.38%
- TGI (%) [3, 5]: 67.62%
